SMILES strings stand for the structures. Values after ≈ are worked out from the molar mass of the structure shown. Where only a bound is given, the exact number is not on record here.

A short description of this assay: Compound was evaluated for cytotoxic activity against KB cells. It is filed as functional, cell-based. The conditions noted are these: Homo sapiens.
The term IC50 denotes the concentration at which inhibition is half-maximal. A high value points to weaker potency in that assay. `CC(=O)O[C@@H](CC[C@@H](O)[C@]1(C)CC[C@H]([C@@](C)(O)CCC=C(C)C)O1)[C@@]1(C)CC[C@H]([C@@](C)(O)CCC=C(C)C)O1` registered an IC50 of 0.52 µg/mL (≈ 0.941 µM).
Consider `CC(C)=CCC[C@](C)(O)[C@H]1CC[C@](C)([C@@H]2CC[C@H]([C@]3(C)CC[C@@H]([C@](C)(O)CCC=C(C)C)O3)O2)O1`, for which it took 7 µg/mL (≈ 14.2 µM) to reach half-maximal inhibition (IC50). This IC50 is about 13-fold higher than that of the compound before.
`CC(C)(O)/C=C/C[C@](C)(O)[C@H]1CC[C@@](C)([C@H]2CC[C@H]([C@]3(C)CC[C@H]([C@@](C)(O)C/C=C/C(C)(C)OO)O3)O2)O1` yielded an IC50 of 5.3 µg/mL (≈ 9.8 µM).
The value for `CC(=O)O[C@@H](CC[C@@H](OC(C)=O)[C@]1(C)CC[C@H]([C@@](C)(O)CCC=C(C)C)O1)[C@@]1(C)CC[C@H]([C@@](C)(O)CCC=C(C)C)O1` was over 100 µg/mL.

For the origin of these results see ChEMBL document CHEMBL1130908, “Diastereoselective two-directional synthesis and cation transport ability of the central tristetrahydrofuranyl unit of meso polyether glabrescol as naturally occurring podand” (Bioorg Med Chem Lett, 1998).
